# Read-outs that look alike come from different tables or passages of the source.
# Assays:
# HCC827 cells [1] = experiment: HCC827 cell proliferation assay, single agents and combinations; format: cell-based, human
# MET = biological target: T1, MET (Homo sapiens, UniProt P08581); experiment: Biochemical kinase assay (Reaction Biology), MET; conditions: 10 μM ATP; read-out: Enzymatic Kinase MET IC50
# T1 construct: purchased Reaction Biology Corporation (assay service; enzyme from the CRO's panel)
# T1 sequence (P08581 25-1390): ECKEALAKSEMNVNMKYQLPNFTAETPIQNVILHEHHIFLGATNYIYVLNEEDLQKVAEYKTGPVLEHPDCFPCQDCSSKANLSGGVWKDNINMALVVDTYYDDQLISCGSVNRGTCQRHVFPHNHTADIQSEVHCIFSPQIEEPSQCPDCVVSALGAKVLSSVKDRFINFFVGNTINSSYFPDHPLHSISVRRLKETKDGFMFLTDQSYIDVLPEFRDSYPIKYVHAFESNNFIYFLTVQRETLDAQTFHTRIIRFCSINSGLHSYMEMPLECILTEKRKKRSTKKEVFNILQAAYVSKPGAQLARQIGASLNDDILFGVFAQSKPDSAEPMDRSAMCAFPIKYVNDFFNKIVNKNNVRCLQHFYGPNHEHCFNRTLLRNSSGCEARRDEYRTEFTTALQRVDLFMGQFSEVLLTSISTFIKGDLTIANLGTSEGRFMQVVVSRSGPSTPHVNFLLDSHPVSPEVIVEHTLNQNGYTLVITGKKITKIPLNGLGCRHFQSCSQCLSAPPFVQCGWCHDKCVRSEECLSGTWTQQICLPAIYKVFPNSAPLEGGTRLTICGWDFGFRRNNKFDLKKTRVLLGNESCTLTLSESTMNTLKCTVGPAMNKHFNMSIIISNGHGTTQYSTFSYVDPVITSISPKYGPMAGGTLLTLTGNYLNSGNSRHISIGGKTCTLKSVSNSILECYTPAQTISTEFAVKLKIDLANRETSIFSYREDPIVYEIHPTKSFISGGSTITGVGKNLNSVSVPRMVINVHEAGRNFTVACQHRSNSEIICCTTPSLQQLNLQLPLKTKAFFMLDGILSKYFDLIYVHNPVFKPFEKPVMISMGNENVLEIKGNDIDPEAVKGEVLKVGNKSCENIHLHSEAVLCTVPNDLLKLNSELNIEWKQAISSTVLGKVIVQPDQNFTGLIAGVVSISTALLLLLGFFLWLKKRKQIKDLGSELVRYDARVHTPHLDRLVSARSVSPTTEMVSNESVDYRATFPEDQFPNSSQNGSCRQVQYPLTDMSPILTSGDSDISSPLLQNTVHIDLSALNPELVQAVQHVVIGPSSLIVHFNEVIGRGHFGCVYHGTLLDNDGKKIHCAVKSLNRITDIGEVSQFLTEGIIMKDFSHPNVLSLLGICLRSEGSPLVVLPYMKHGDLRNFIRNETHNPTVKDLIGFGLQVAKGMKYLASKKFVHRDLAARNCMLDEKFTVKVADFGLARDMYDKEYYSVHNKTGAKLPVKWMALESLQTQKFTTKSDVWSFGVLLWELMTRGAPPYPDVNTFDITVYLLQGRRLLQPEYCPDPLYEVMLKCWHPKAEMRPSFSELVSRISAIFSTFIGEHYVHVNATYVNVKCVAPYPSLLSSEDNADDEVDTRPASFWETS
# Description: (§1) Specific kinase/substrate pairs along with required cofactors were prepared in reaction buffer; 20 mM Hepes pH 7.5, 10 mM MgCl2,1 mM EGTA, 0.02% Brij35, 0.02 mg/ml BSA, 0.1 mM Na3VO4, 2 mM DTT, 1% DMSO (for specific details of individual kinase reaction components see Supplementary Table 2). Compounds were delivered into the reaction, followed ˜20 minutes later by addition of a mixture of ATP (Sigma, St. Louis MO) and ^33P ATP (Perkin Elmer, Waltham MA) to a final concentration of 10 μM. Reactions were carried out at room temperature for 120 min, followed by spotting of the reactions onto P81 ion exchange filter paper (Whatman Inc., Piscataway, NJ). […] IC50 values and curve fits were obtained using Prism (GraphPad Software).
# (§2) The enzymatic kinase inhibition activities at 10 μM ATP concentration were determined at Reaction Biology.
# MKN-45 cells [2] = experiment: MET cell proliferation assay, MKN-45 (CellTiter-Glo); format: cell-based; conditions: Homo sapiens, 72 hours treatment
# Description: (§3) Two thousand cells per well were seeded in 384 well white plate for 24 hrs, and then treated with compounds for 72 hours (37° C., 5% CO2). Cell proliferation was measured using CellTiter-Glo luciferase-based ATP detection assay (Promega) following the manufacturer's protocol. IC50 determinations were performed using GraphPad Prism software (GraphPad, Inc., San Diego, CA).
# (§4) The anti-cell proliferation activities against MET and CSF1R driven cell lines were conducted with MKN-45, SNU-5, Ba/F3 TEL-CSF1R cells, and M-NFS-60 respectively.
# SNU-5 cells = experiment: MET cell proliferation assay, SNU-5 (CellTiter-Glo); format: cell-based; conditions: Homo sapiens, 72 hours treatment
# Description: as §3, §4
# SRC = biological target: T2, SRC (Homo sapiens, UniProt P12931); experiment: Biochemical kinase assay (Reaction Biology), SRC; conditions: 10 μM ATP; read-out: Enzymatic Kinase SRC IC50
# T2 construct: purchased Reaction Biology Corporation (assay service; enzyme from the CRO's panel)
# T2 sequence (P12931 whole entry): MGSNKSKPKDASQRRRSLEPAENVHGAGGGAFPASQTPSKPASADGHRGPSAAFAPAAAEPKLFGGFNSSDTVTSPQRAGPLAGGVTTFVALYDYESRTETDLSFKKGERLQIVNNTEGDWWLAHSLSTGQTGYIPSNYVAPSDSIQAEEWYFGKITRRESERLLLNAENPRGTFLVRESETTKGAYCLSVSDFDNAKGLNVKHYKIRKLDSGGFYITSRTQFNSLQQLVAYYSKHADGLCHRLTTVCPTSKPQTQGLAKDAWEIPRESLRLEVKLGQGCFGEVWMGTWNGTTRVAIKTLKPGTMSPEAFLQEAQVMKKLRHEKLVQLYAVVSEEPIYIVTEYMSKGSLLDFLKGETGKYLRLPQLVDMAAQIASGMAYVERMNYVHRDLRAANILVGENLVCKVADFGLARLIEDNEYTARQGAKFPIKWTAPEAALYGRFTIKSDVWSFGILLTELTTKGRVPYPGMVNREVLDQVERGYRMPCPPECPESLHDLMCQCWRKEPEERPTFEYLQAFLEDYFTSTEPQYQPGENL
# Description: as §1, with “The biochemical kinase assay was performed at Reaction Biology Corporation (www.reactionbiology.com, Malvern, PA) following the procedures described in the reference (Anastassiadis T, et al Nat Biotechnol. 2011, 29, 1039). Specific” for “Specific”, “NJ). Unbound phosphate was removed by extensive washing of filters in 0.75% phosphoric acid.” for “NJ).”
# as §2
# c-FMS (CSF1R) = biological target: T3, c-FMS (CSF1R) (Homo sapiens, UniProt P07333); experiment: Biochemical kinase assay (Reaction Biology), c-FMS (CSF1R); conditions: 10 μM ATP; read-out: Enzymatic Kinase c-FMS (CSF1R) IC50
# T3 construct: purchased Reaction Biology Corporation (assay service; enzyme from the CRO's panel)
# T3 sequence (P07333 20-972): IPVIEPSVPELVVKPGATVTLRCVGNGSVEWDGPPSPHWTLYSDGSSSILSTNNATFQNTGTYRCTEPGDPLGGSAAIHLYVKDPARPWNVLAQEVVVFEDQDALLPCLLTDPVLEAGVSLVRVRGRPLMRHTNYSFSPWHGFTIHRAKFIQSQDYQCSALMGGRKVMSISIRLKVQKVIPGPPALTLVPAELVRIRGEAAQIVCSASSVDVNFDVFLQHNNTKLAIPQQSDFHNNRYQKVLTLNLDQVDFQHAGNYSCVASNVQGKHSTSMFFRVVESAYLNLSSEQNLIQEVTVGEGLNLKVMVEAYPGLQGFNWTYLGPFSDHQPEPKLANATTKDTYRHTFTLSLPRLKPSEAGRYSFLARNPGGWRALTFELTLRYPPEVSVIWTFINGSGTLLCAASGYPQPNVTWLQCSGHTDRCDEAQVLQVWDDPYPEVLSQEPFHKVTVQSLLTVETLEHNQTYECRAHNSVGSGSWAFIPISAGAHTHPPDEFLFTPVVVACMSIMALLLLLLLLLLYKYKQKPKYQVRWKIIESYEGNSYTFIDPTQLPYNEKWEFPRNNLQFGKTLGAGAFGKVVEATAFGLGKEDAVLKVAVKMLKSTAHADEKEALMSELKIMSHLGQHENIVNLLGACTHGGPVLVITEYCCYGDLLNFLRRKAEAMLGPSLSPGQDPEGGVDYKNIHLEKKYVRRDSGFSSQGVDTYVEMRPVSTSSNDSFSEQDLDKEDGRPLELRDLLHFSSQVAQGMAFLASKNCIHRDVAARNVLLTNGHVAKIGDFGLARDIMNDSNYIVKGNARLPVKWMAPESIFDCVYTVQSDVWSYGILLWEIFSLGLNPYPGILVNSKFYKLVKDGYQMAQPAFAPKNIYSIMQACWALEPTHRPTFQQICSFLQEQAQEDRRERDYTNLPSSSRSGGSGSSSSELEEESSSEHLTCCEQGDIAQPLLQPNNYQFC
# Description: as §1, §2
# M-NFS-60 cells = experiment: M-NFS-60 cell proliferation at varied CSF-1; format: cell-based; conditions: Mus musculus, read-out: M-NFS-60 IC50
# Description: as §3, §4
# HCC827 cells [3] = experiment: Scratch wound healing assay, HCC827; format: cell-based, human; conditions: 36-48 hours treatment
# Description: (§5) MKN-45 or HCC827 cells were seeded in 24-well plate. After 12-24 hours, confluent cell monolayers were gently scraped with a sterile pipette tip to form a scratch. The plates were washed with fresh medium, and the cells were incubated with medium alone or medium containing various concentration of compounds. After 36-48 hours, the plates were examined and recorded by an EVOS FL microscopy (Life Technology) to monitor rescaling of the cell monolayer.
# MKN-45 cells [4] = experiment: Scratch wound healing assay, MKN-45; format: cell-based; conditions: 36-48 hours treatment
# Description: as §5
Compound,IC50 (MET),IC50 (MKN-45 cells [2]),IC50 (SNU-5 cells),IC50 (SRC),further results
C=CC(=O)Nc1cc(Nc2nccc(-c3cn(C)c4ccccc34)n2)c(OC)cc1N(C)CCN(C)C [AZD9291],–,–,–,–,"Emax (HCC827 cells [1]; Homo sapiens, HCC827, read-out: HCC827 cell proliferation Emax (maximum inhibition)): 47%; IC50 (HCC827 cells [1]; Homo sapiens, HCC827, read-out: HCC827 cell proliferation IC50): 5 nM"
"CCN1Cc2c(ccc(F)c2Cl)O[C@@H](C)CNC(=O)c2c(N)nn3ccc1nc23 [Compound 1, (7S)-3-amino-12-chloro-14-ethyl-11-fluoro-7-methyl-6,7,13,14-tetrahydro-1,15-ethenopyrazolo[4,3-f][1,4,8,10]benzoxatriazacyclotridecin-4(5H)-one]",20.4 nM,193 nM,174 nM,–,–
"CCN1Cc2c(C#N)cccc2O[C@@H](C)CNC(=O)c2cnn3ccc1nc23 [Compound 2, (7S)-14-ethyl-7-methyl-4-oxo-4,5,6.7,13,14-hexahydro-1,15-ethenopyrazolo[4,3-f][1,4,8,10]benzoxatriazacyclotridecine-12-carbonitrile]",36.5 nM,129 nM,136 nM,3 nM,–
"CCN1Cc2c(C#N)cccc2OCCNC(=O)c2cnn3ccc1nc23 [Compound 3, 14-ethyl-4-oxo-4,5,6,7,13,14-hexahydro-1,15-ethenopyrazolo[4,3-f][1,4,8,10]benzoxatriazacyclotridecine-12-carbonitrile]",110 nM,471 nM,674 nM,97.1 nM,–
"CCN1Cc2c(ccc(F)c2C#N)O[C@@H](C)CNC(=O)c2cnn3ccc1nc23 [Compound 4, (7S)-14-ethyl-11-fluoro-7-methyl-4-oxo-4,5,6,7,13,14-hexahydro-1,15-ethenopyrazolo[4,3-f][1,4,8,10]benzoxatriazacyclotridecine-12-carbonitrile]",1.85 nM,12 nM,5.8 nM,0.49 nM,IC50 (c-FMS (CSF1R)): 0.42 nM
"CCN1Cc2c(C#N)cccc2O[C@@H](C)CNC(=O)c2c(N)nn3ccc1nc23 [Compound 6, (7S)-3-amino-14-ethyl-7-methyl-4-oxo-4,5,6,7,13,14-hexahydro-1,15-ethenopyrazolo[4,3-f][1,4,8,10]benzoxatriazacyclotridecine-12-carbonitrile]",9.7 nM,58.3 nM,36.8 nM,13.6 nM,–
"FC(F)(F)c1ccc(CNc2ccc(Cc3c[nH]c4ncc(Cl)cc34)cn2)cn1 [Pexidartinib, reference compound]",–,–,–,–,IC50 (M-NFS-60 cells; CSF-1 0 ng/mL): < 0.1 nM; IC50 (M-NFS-60 cells; CSF-1 0.3 ng/mL): 2 nM; IC50 (M-NFS-60 cells; CSF-1 1 ng/mL): 146 nM; IC50 (M-NFS-60 cells; CSF-1 3 ng/mL): 212 nM; IC50 (M-NFS-60 cells; CSF-1 10 ng/mL): 380 nM; IC50 (M-NFS-60 cells; CSF-1 30 ng/mL): 595 nM; IC50 (M-NFS-60 cells; CSF-1 100 ng/mL): 702 nM
CNC(=O)c1ccc(-c2cnc3ncc(Cc4ccc5ncccc5c4)n3n2)cc1F [capmatinib],–,–,–,–,"cell migration of HCC827 cells, wound healing (HCC827 cells [3]): minimum effect; cell migration of HCC827 cells, wound healing (HCC827 cells [3]; listed as campmatinib): minimal effect; IC50 (HCC827 cells [1]; Homo sapiens, HCC827, combination partner at 1 μM where combined, AZD9291 curves partial, read-out: HCC827 cell proliferation IC50): > 10000 nM; HCC827 cell proliferation IC50 (HCC827 cells [1]; combination partner at 1 μM where combined, AZD9291 curves partial): not active; cell migration of MKN-45 cells, wound healing (MKN-45 cells [4]): inhibited"

# Further lines, with some results ahead:
IC50 (MET),IC50 (MKN-45 cells [2]),IC50 (SNU-5 cells),IC50 (SRC),Compound,further results
2.2 nM,17.7 nM,1 nM,0.7 nM,"C[C@H]1CNC(=O)c2c(N)nn3ccc(nc23)N(CC2CC2)Cc2c(ccc(F)c2C#N)O1 [Compound 7, (7S)-3-amino-14-(cyclopropylmethyl)-11-fluoro-7-methyl-4-oxo-4,5,6,7,13,14-hexahydro-1,15-ethenopyrazolo[4,3-f][1,4,8,10]benzoxatriazacyclotridecine-12-carbonitrile]",–
3.8 nM,1 nM,1 nM,0.83 nM,"CC(C)N1Cc2c(ccc(F)c2C#N)O[C@@H](C)CNC(=O)c2c(N)nn3ccc1nc23 [Compound 8, (7S)-3-amino-11-fluoro-7-methyl-4-oxo-14-(propan-2-yl)-4,5,6,7,13,14-hexahydro-1,15-ethenopyrazolo[4,3-f][1,4,8,10]benzoxatriazacyclotridecine-12-carbonitrile]",–
–,297 nM,–,–,"C[C@H]1CNC(=O)c2c(N)nn3ccc(nc23)NCc2c(ccc(F)c2C#N)O1 [Compound 9, (7S)-3-amino-11-fluoro-7-methyl-4-oxo-4,5,6,7,13,14-hexahydro-1,15-ethenopyrazolo[4,3-f][1,4,8,10]benzoxatriazacyclotridecine-12-carbonitrile]",–
